How the values were obtained:
[1] = refractive index (Na D-line) (dimensionless); settings: 298.15 K; 101.33 kPa; Liquid
[2] = 101 kPa, Liquid
[3] = xn = mol fraction of the nth substance listed; settings: 101 kPa, Liquid
[4] = refractive index (Na D-line) (dimensionless); xn = mol fraction of the nth substance listed; settings: 298.15 K, 101 kPa, Liquid

CCCCCCCC[n+]1ccn(C)c1.F[B-](F)(F)F [1-methyl-3-octylimidazolium tetrafluoroborate]
Settings	refractive index
[1]	1.4319

[2]
Settings	mass density [kg/m3]
298.15 K	1101.08
308.15 K	1094.13
318.15 K	1087.24

CCCCCCCC[n+]1ccn(C)c1.F[B-](F)(F)F [1-methyl-3-octylimidazolium tetrafluoroborate] + COCCO
mass density [kg/m3], [3]
Settings	298.15 K	308.15 K	318.15 K
x1 = 0.0106	965.72	956.59	947.31
x1 = 0.0477	983.08	974.21	965.56
x1 = 0.1083	1004.86	996.43	987.84
x1 = 0.1495	1016.31	1007.97	999.62
x1 = 0.2062	1029.2	1021.09	1012.99
x1 = 0.2827	1042.98	1035.09	1027.25
x1 = 0.3204	1048.69	1041.05	1033.14
x1 = 0.542	1073.51	1066.16	1058.83
x1 = 0.7354	1087.07	1079.83	1072.61
x1 = 0.9632	1098.9	1092.03	1085.14
x1 = 0.9929	1098.25	1091.42	1084.47
x1 = 1	1101.08	1094.13	1087.24

[4]
Settings	refractive index
x1 = 0.0106	1.4015
x1 = 0.0477	1.4057
x1 = 0.1083	1.4108
x1 = 0.1495	1.4134
x1 = 0.2062	1.4163
x1 = 0.2827	1.4193
x1 = 0.3204	1.4208
x1 = 0.542	1.4258
x1 = 0.7354	1.4285
x1 = 0.9632	1.4312
x1 = 0.9929	1.4318
x1 = 1	1.4319

CCCCCCCC[n+]1ccn(C)c1.F[B-](F)(F)F [1-methyl-3-octylimidazolium tetrafluoroborate] + COCCOCCO
Settings	refractive index
[4], x1 = 1	1.4319

CCCCCCCC[n+]1ccn(C)c1.F[B-](F)(F)F [1-methyl-3-octylimidazolium tetrafluoroborate] + COCCOCCOCCO
[3], x1 = 1
Settings	mass density [kg/m3]
298.15 K	1101.08
308.15 K	1094.13
318.15 K	1087.24

Settings	refractive index
[4], x1 = 1	1.4319

COCCOCCO [2-(2-methoxyethoxy)ethanol]
Settings	refractive index
[1]	1.4242

[2]
Settings	mass density [kg/m3]
298.15 K	1014.87
308.15 K	1005.99

COCCOCCO [2-(2-methoxyethoxy)ethanol] + CCCCCCCC[n+]1ccn(C)c1.F[B-](F)(F)F
mass density [kg/m3], [3]
Settings	298.15 K	308.15 K	318.15 K
x2 = 0	1014.87	1005.99	–
x2 = 0.0088	1017.27	1008.44	999.55
x2 = 0.0165	1019.28	1010.49	1001.65
x2 = 0.0745	1032.37	1023.86	1015.33
x2 = 0.1611	1046.73	1038.56	1030.36
x2 = 0.2555	1058.05	1050.15	1042.23
x2 = 0.3459	1066.48	1058.76	1051.05
x2 = 0.4603	1075.27	1067.73	1060.25
x2 = 0.6468	1086.77	1079.5	1072.31
x2 = 0.8198	1094.83	1087.77	1080.74
x2 = 0.9227	1098.58	1091.61	1084.65
x2 = 0.9912	1100.8	1093.85	1086.95

[4]
Settings	refractive index
x2 = 0	1.4242
x2 = 0.0088	1.4227
x2 = 0.0165	1.4251
x2 = 0.0745	1.4271
x2 = 0.1611	1.4288
x2 = 0.2555	1.4298
x2 = 0.3459	1.4304
x2 = 0.4603	1.4308
x2 = 0.6468	1.4312
x2 = 0.8198	1.4314
x2 = 0.9227	1.4317
x2 = 0.9912	1.4318

COCCOCCOCCO [2-[2-(2-methoxyethoxy)ethoxy]ethanol]
Settings	refractive index
[1]	1.4362

[2]
Settings	mass density [kg/m3]
298.15 K	1044.91
308.15 K	1036.11
318.15 K	1027.28

COCCOCCOCCO [2-[2-(2-methoxyethoxy)ethoxy]ethanol] + CCCCCCCC[n+]1ccn(C)c1.F[B-](F)(F)F
mass density [kg/m3], [3]
Settings	298.15 K	308.15 K	318.15 K
x2 = 0	1044.91	1036.11	1027.28
x2 = 0.0122	1046.7	1037.94	1029.17
x2 = 0.0223	1048.13	1039.41	1030.69
x2 = 0.0994	1057.7	1049.21	1040.84
x2 = 0.2073	1067.89	1059.71	1051.67
x2 = 0.3192	1075.71	1067.81	1060
x2 = 0.42	1081.2	1073.51	1065.88
x2 = 0.5301	1086.14	1078.64	1071.18
x2 = 0.7153	1093.01	1085.74	1078.58
x2 = 0.8449	1097.08	1089.95	1082.96
x2 = 0.9395	1099.66	1092.63	1085.72
x2 = 0.992	1100.9	1093.94	1087.05

[4]
Settings	refractive index
x2 = 0	1.4362
x2 = 0.0122	1.4364
x2 = 0.0223	1.4366
x2 = 0.0994	1.4372
x2 = 0.2073	1.4373
x2 = 0.3192	1.4369
x2 = 0.42	1.4361
x2 = 0.5301	1.4352
x2 = 0.7153	1.4334
x2 = 0.8449	1.4325
x2 = 0.9395	1.4321
x2 = 0.992	1.432

COCCO [2-methoxyethan-1-ol]
Settings	refractive index
[1]	1.4004

[2]
Settings	mass density [kg/m3]
298.15 K	960.05
308.15 K	950.81
318.15 K	941.45

COCCO [2-methoxyethan-1-ol] + CCCCCCCC[n+]1ccn(C)c1.F[B-](F)(F)F
[3], x2 = 0
Settings	mass density [kg/m3]
298.15 K	960.05
308.15 K	950.81
318.15 K	941.45

Settings	refractive index
[4], x2 = 0	1.4004
